Where “and” joins values, the source holds several entries; their conditions need not be identical. Equal values may be shown once.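 Each compound was tested at five concentrations against cells in 96-well plates for 48 hours. At the GI50, growth is halved. TGI marks complete inhibition of growth.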
How the values were obtained:
Assay in all cases: inhibition of tumour cell growth, NCI panel, 48 h
[1] = test system: OVCAR-5 ovarian
[2] = test system: RPMI-8226 leukemia
[3] = test system: HL-60(TB) leukemia
[4] = test system: NCI-H460 lung
[5] = test system: NCI/ADR-RES ovarian
[6] = test system: M14 melanoma
[7] = test system: HT29 colon
[8] = test system: UACC-257 melanoma
[9] = test system: BT-549 breast
[10] = test system: KM20L2 colon
[11] = test system: M19-MEL melanoma

Compound | TGI [1] | TGI [2] | TGI [3] | TGI [4] | TGI [5] | TGI [6] | TGI [7] | TGI [8] | TGI [9] | TGI [10] | TGI [11] | GI50 [1] | GI50 [2] | GI50 [3] | GI50 [6] | GI50 [7] | GI50 [8] | GI50 [9]
c1ccc2c(c1)cc1n2CCc2c-1[nH]c1ccccc21 | > 10 µM | > 10 µM | > 10 µM | > 10 µM | > 10 µM | > 10 µM | > 10 µM | > 10 µM | > 10 µM | – | – | – | – | – | – | – | – | –
NCCN1C(=O)c2ccccc2C1c1ccc(Cl)cc1 (configuration not stated) | > 100 µM | > 100 µM | > 100 µM | > 100 µM | > 100 µM | > 100 µM | > 100 µM | > 100 µM | > 100 µM | – | – | – | – | – | – | – | – | –
COc1cc(OC)c2c(c1)OC(c1cccnc1)C(c1ccccc1)C2=O (configuration not stated) | > 100 µM | > 100 µM | > 100 µM | > 100 µM | > 100 µM | > 100 µM | > 100 µM | > 100 µM | > 100 µM | – | – | – | – | – | – | – | – | –
O=C(NO)NCCCl | > 100 µM | > 100 µM | > 100 µM | > 100 µM | > 100 µM | > 100 µM | > 100 µM | > 100 µM | > 100 µM | – | – | – | – | – | – | – | – | –
Cn1cc(C(=O)c2ccccc2)cc(C(=O)c2ccccc2)c1=O | > 100 µM | > 100 µM | > 100 µM | > 100 µM | – | > 100 µM | > 100 µM | > 100 µM | – | > 100 µM | > 100 µM | – | – | – | – | – | – | –
CC(C)(C)N/N=C(\C(=O)NC1=C(Cl)C(=O)c2ccccc2C1=O)C1C=CCS1(=O)=O (configuration not stated) | 35.5 µM | > 100 µM | > 100 µM | 22 µM | 71.9 µM | 23.7 µM | 29.3 µM | 26.5 µM | 25.1 µM | – | – | – | – | – | – | – | – | –
COc1cc2c(/C=C3/C(=O)N(C)c4ccc(O)cc43)c(Cl)[nH]c2cc1C | 21.6 µM | 4.7 µM | 3.02 µM | 19.8 µM | 5.59 µM | 13.1 µM | 46.7 µM | 23.5 µM | 15.8 µM | – | – | – | – | – | – | – | – | –
C/C(N=NS(=O)(=O)c1ccc([N+](=O)[O-])cc1)=C1\C=CC=CN1O | > 100 µM | > 100 µM | > 100 µM | > 100 µM | – | > 100 µM | > 100 µM | > 100 µM | – | > 100 µM | > 100 µM | – | – | – | – | – | – | –
CC(=O)OCC1OC(n2c(Br)nc3c2c(=O)n(C)c(=O)n3C)C(OC(C)=O)C1OC(C)=O (configuration not stated) | > 100 µM | 95.6 µM | 57.9 µM | > 100 µM | > 100 µM | > 100 µM | > 100 µM | > 100 µM | > 100 µM | – | – | – | – | – | – | – | – | –
CCN1CCC(CNC(=O)c2ccc(N)cc2)N1CC (configuration not stated) | > 100 µM | > 100 µM | > 100 µM | > 100 µM | > 100 µM | > 100 µM | > 100 µM | > 100 µM | > 100 µM | – | – | – | – | – | – | – | – | –
C[C@H](CCC1SC1(C)C)C1CCC2(C)C3=C(CC[C@]12C)[C@@]1(C)CC[C@H](O)C(C)(C)C1CC3 (some centres not stated) | > 100 µM | > 100 µM | > 100 µM | > 100 µM | – | > 100 µM | > 100 µM | > 100 µM | – | > 100 µM | – | – | – | – | – | – | – | –
C#CCN(Cc1ccc2nc(-c3ccccc3)c(N)nc2c1)c1cc(OC)c(OC)c(OC)c1 | > 100 µM | 32.3 µM | 41.4 µM | 81.1 µM | – | 93.7 µM | 59 µM | – | – | > 100 µM | > 100 µM | – | – | – | – | – | – | –
O=c1[nH]c(=O)n(COCc2ccccc2)cc1Nc1ccc(Br)cc1 | > 100 µM | > 100 µM | > 100 µM | > 100 µM | > 100 µM | > 100 µM | > 100 µM | > 100 µM | > 100 µM | – | – | – | – | – | – | – | – | –
COc1cc2c(/C=C3/C(=O)Nc4ccc(Cl)cc43)c(Cl)[nH]c2cc1C | 17.1 µM | 5.13 µM | 13.6 µM | 13.9 µM | 6.44 µM | 13.7 µM | 7.54 µM | 22.4 µM | 1.08 µM | – | – | – | – | – | – | – | – | –
COc1ccccc1C1(c2c(OC)c(=O)c2=O)SCCCS1 | > 100 µM | > 100 µM | > 100 µM | > 100 µM | > 100 µM | > 100 µM | > 100 µM | > 100 µM | > 100 µM | – | – | – | – | – | – | – | – | –
Cc1ccc2nc(-c3ccc(C(C)(C)C)cc3)oc(=O)c2c1 | 89.5 µM | 48.9 µM | 40 µM | 41.6 µM | 54.2 µM | 74 µM | 38.3 µM | 46.2 µM | 57.3 µM | – | – | – | – | – | – | – | – | –
CC(=O)OCC1OC(n2c(S)c(C#N)c(-c3ccccc3)c(C#N)c2=O)C(OC(C)=O)C(OC(C)=O)C1OC(C)=O (configuration not stated) | > 100 µM | > 100 µM and 75 µM | > 100 µM and 35.5 µM | > 100 µM | > 100 µM | > 100 µM | > 100 µM and 52.8 µM | > 100 µM and 81.4 µM | > 100 µM and 59.1 µM | – | – | > 100 µM and 39.7 µM | > 100 µM and 35 µM | > 100 µM and 17.4 µM | > 100 µM and 36.5 µM | > 100 µM and 24.3 µM | > 100 µM and 36.2 µM | > 66.8 µM and 21.1 µM
CC1(C)COC2=C(C1)C(=O)c1ccccc1C2=O | 3.15 µM | 4.45 µM | 2.71 µM | 3.64 µM | 1.94 µM | 2.96 µM | 5.41 µM | 2.11 µM | 3.66 µM | – | – | – | – | – | – | – | – | –
O=C(SCc1cccc2ccccc12)c1ccc(Cl)cc1 | > 100 µM | > 100 µM | > 100 µM | > 100 µM | > 100 µM | > 100 µM | > 100 µM | > 100 µM | > 100 µM | – | – | – | – | – | – | – | – | –
O=C(Cn1c(C(=O)c2ccccc2)nc2ccccc21)c1ccccc1 | > 100 µM | > 100 µM | > 100 µM | > 100 µM | > 100 µM | > 100 µM | > 31.6 µM | > 100 µM | > 100 µM | – | – | – | – | – | – | – | – | –
COc1cc(C(C)O)c[n+](CCC2CNc3ccccc32)c1 (configuration not stated) | – | > 100 µM | > 100 µM | > 100 µM | – | > 100 µM | > 100 µM | > 100 µM | – | > 100 µM | > 100 µM | – | – | – | – | – | – | –
COC(=O)Nc1nc2ccc(S(=O)(=O)N3CCOCC3)cc2[nH]1 | > 100 µM | > 100 µM | > 100 µM | > 100 µM | > 100 µM | > 100 µM | > 100 µM | > 100 µM | > 100 µM | – | – | – | – | – | – | – | – | –
